Reference: patent publication US20220370310A1, “SURFACE-TREATED MAGNESIUM OR CALCIUM ION-CONTAINING MATERIALS AS WHITE PIGMENTS IN ORAL CARE COMPOSITIONS” (CHILDREN'S MEDICAL CENTER CORPORATION, priority 2020, published 2022)

Key:
BMDCs = conditions: prior work (Zanoni et al., 2016); cited from earlier work
[1] = test system: antigen-specific T cell responses; assay: In vivo OVA immunization and T cell re-stimulation; parameters: species or system C57BL/6J mice
Experimental: Flow cytometry: After FcR blockade, 7 days BMDCs were resuspended in MACS buffer (PBS with 1% FCS and 2 mM EDTA), and stained with the following fluorescently conjugated antibodies (BioLegend): anti-CD11c (clone N418), anti-I-A/I-E (clone M5/114.15.2), anti-CD40 (clone 3/23), anti-CD80(16-10A1), anti-CD69 clone (H1.2F3), anti-H-2Kb (clone AF6-88.5). Single cell suspension from the tumor or draining inguinal lymph nodes, or skin inguinal adipose tissue were resuspended in MACS buffer (PBS with 1% FCS and 2 mM EDTA), and stained with the following fluorescently conjugated antibodies (BioLegend): anti-CD8a (clone 53-6.7), anti-CD4 (clone RM4-5), anti-CD44 (clone IM7), anti-CD62L (MEL-14), anti-CD3 (17A2), anti-CD103 (2E7), anti-CD69 clone (H1.2F3), anti-CD45 (A20 or 30F11). LIVE/DEAD™ Fixable Violet Dead Cell Stain Kit (Molecular probes) was used to determine the viability of cells, and cells were stained for 20 minutes in PBS at 4° C. Draining inguinal lymph nodes T cells were stained with OVA-peptide tetramers at room temperature for 1 h. PE-conjugated H2K(b) SIINFEKL (OVA 257-264; SEQ ID NO: 1) and APC conjugated I-A(b) AAHAEINEA (OVA 329-337; SEQ ID NO: 2) were used. I-A(b) and H2K(b) associated with CLIP peptides were used as isotype controls. […] Data were analyzed using FlowJo software.
Intracellular staining: For intracellular cytokine staining, cells were stimulated with 50 ng/ml phorbol 12-myristate 13-acetate (PMA) and 500 ng/ml ionomycin (Sigma-Aldrich) in the presence of GolgiStop (BD) and brefeldin A for 4-5 h. […] Data were analyzed using FlowJo software.
In vivo immunization and T cell re-stimulation: Female C57BL/6J mice aged 8 weeks, were immunized subcutaneously (s.c.) on the left lower back with either 150 μg/mouse endotoxin-free OVA plus 10 μg/mouse LPS emulsified in incomplete Freund's adjuvant, or with 150 μg/mouse endotoxin-free OVA, plus 65 μg/mouse oxPAPC or PGPC, plus 10 μg/mouse LPS emulsified in incomplete Freund's adjuvant. […] Secretion of IFNγ, IL-10 and IL-2 were measured by ELISA 5 days later. […]

OT-I and OT-II T cells = assay: OT-I and OT-II in vitro T-cell stimulation; format: cell-based, mouse; conditions: OVA-loaded BMDCs pretreated with stimulus, FIG. 1F
Experimental: OT-I and OT-II in vitro T-cell stimulation: Splenic CD8+ and CD4^+ T cells were sorted from OT-I and OT-II mice by magnetic cell sorting with anti-CD8 beads or anti-CD4 beads respectively (Miltenyi Biotech). Sorted T cells were then seeded in 96-well plates at a concentration of 100.000 cells per well in the presence of either 20.000 or 10.000 DCs (5:1 or 10:1 ratio) that were pretreated with either LPS (activation stimuli) or LPS+PGPC (hyperactivation stimuli) or LPS+Alum (pyroptotic stimuli) and pulsed (or not) with OVA protein or SIINFEKL (SEQ ID NO: 1) peptide at 100 μg/ml for 2 hours. 5 days post culture, supernatants were collected and clarified by centrifugation for short-term storage at −20° C. and cytokine measurement by ELISA.
Intracellular staining: For intracellular cytokine staining, cells were stimulated with 50 ng/ml phorbol 12-myristate 13-acetate (PMA) and 500 ng/ml ionomycin (Sigma-Aldrich) in the presence of GolgiStop (BD) and brefeldin A for 4-5 h. Cells were then washed twice with PBS, and stained with LIVE/DEAD™ Fixable violet or green Dead Cell Stain Kit (Molecular probes) in PBS for 20 min at 4° C. Cells were washed with MACS buffer, and stained for appropriate surface markers for 20 min at 4° C. […] Data were analyzed using FlowJo software.

B16OVA cells = assay: Immunization prior to tumor inoculation, B16OVA challenge; format: in vivo, C57BL/6 mice; conditions: s.c. immunization with B16OVA WTL, challenge 15 days later
Experimental: Whole tumor cell lysates preparation: To prepare whole tumor cell lysates (WTL) for immunization, tumor cell lines were cultured for 4-5 days in complete DMEM. When cells became confluent, supernatants were collected, and the cells were washed and dissociated using trypsin-EDTA (Gibco). Tumor cell lines were then resuspended at 5×10^6 cells/ml in their collected culture supernatant, then lysed by 3 cycles of freeze-thawing.
In vivo immunization and tumor challenges: For immunization prior tumor inoculation, C57BL/6 mice were injected subcutaneously (s.c.) into the right flank with PBS (unimmunized), WTL alone or with LPS, or WTL plus LPS and OxPAPC or PGPC all emulsified in incomplete Freud's adjuvant (IFA). In some experiments, LPS is replaced by MPLA. […] Tumor-free mice were re-challenged s.c. into the upper back with a lethal dose of 5×10^5 viable B16OVA or B16F-10 cells, or 1×10^6 of viable MC38-OVA cells as indicated.
Tumor Infiltration: To assess the frequency of tumor-infiltrating lymphocytes (TIL) in immunized mice, tumors were harvested when their size reached 1.8-2 cm. Tumors were dissociated using the tumor Dissociation Kit (Milteny Biotec) and the gentleMACS dissociator following the manufacturer's protocol. […] CD45^+ cells were positively selected using CD45 microbeads (Milteny Biotec), and T cell infiltration was assessed by flow cytometry. […]

Row | Compound | TNFα and IL-1β release by LPS-activated BMDCs (BMDCs) | TH1/TH2 phenotype of the T cell response ([1]; immunization with OVA) | IL-10 and IL-13 release by OT-II T cells (OT-I and OT-II T cells) | protection against B16OVA tumor challenge (B16OVA cells) | effector and memory T cell generation in dLN ([1]; 7 and 40 days post-immunization with OVA (+LPS), CD44/CD62L flow cytometry) | antigen-specific tetramer+IFNγ+ T cell responses ([1]; WT mice, 7 days post immunization with OVA, re-stimulated 7 days with OVA-loaded BMDC)
1 | lipopolysaccharide [LPS] | release TNFα but not IL-1β | mixed TH1 and TH2 phenotype | large amounts of IL-10, and IL-13 | – | – | –
2 | CCCCCCCCCCCCCCCC(=O)OC[C@H](COP(=O)([O-])OCC[N+](C)(C)C)OC(=O)CCCC(=O)O [PGPC, [(2R)-2-(4-carboxybutanoyloxy)-3-hexadecanoyloxypropyl] 2-(trimethylazaniumyl)ethyl phosphate] | – | – | – | confers optimal protection | enhance the magnitude of effector and memory T cell generation | highest frequency of tetramer+IFNγ+ responses
